Assay results: patent US20250019385A1, “SPIROCYCLIC ANNULATED 2-AMINO-3-CYANO THIOPHENES AND DERIVATIVES FOR THE TREATMENT OF CANCER” (Boehringer Ingelheim International GmbH, priority 2023, published 2025)

Tests used:
[1] = test system: NCI-H358 cells; assay: NCI-H358 CTG proliferation assay (120 h) (NSCLC, G12C); assay type: cell-based; details: Homo sapiens
Procedure, shortened: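 Cells seeded at 200 per well in RPMI-1640 with 10% FCS, left overnight, then treated with a logarithmic dose series in duplicate for 120 h. Viability measured by CellTiter-Glo luminescence as percent of DMSO controls; IC50 from four-parameter non-linear regression.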

[2] = test system: NCI-H727 cells; assay: NCI-H727 CTG proliferation assay (120 h) (lung cancer, G12V); assay type: cell-based; details: Homo sapiens
Procedure, shortened: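 Cells seeded at 500/well in RPMI + 10% FCS, left overnight, then dosed with a log dilution series in technical duplicate; untreated T0 plate read at compound addition. After 120 h at 37 °C, CellTiter-Glo luminescence read; viability as % of DMSO control, IC50 from four-parameter non-linear regression.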

[3] = test system: AsPC-1 cells; assay: AsPC-1 CTG proliferation assay (120 h) (pancreatic cancer, G12D); assay type: cell-based; details: Homo sapiens, ASPC1
Procedure, shortened: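 AsPC-1 cells plated overnight, then exposed to logarithmic compound dose series (duplicates) for 120 h at 37° C. Viability by CellTiter-Glo luminescence as percent of DMSO controls, with a T0 reading at compound addition; IC50 from four-parameter non-linear regression.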

[4] = test system: MKN1 cells; assay: MKN1 CTG proliferation assay (120 h) (gastric cancer, wt amplified); assay type: cell-based; details: Homo sapiens, MKN-1
Procedure, shortened: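 Cells were seeded at 200 per well in RPMI-1640 with 10% FCS, grown overnight, then exposed to logarithmic compound dilutions in duplicate for 120 h. Viability was read by CellTiter-Glo luminescence as percent of DMSO controls, with untreated T0 cells measured at dosing. IC50 came from four-parameter non-linear regression.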

[5] = Metabolic (microsomal) stability assay, human liver microsomes (HLM); assay type: in vitro ADME; details: 1 μM test compound, predicted clearance as percent of liver blood flow

Row | SMILES | IC50 [1] [nM] | IC50 [2] [nM] | IC50 [3] [nM] | IC50 [4] [nM] | HLM QH [5] [%]
1 | C[C@H](Oc1nc(-c2noc3c2CCC[C@@]32CCCc3sc(N)c(C#N)c32)nc2c1CCCO[C@]21CCOC1)[C@@H]1CCCN1C [II-10] | 5 | 7 | 264 | 10 | 47
2 | C[C@H](Oc1nc(-c2onc3c2CCC[C@@]32CCCc3sc(N)c(C#N)c32)nc2c1n(C)c(=O)n2[C@@H]1CCOC1)[C@@H]1[C@@H](F)CCN1C [I-5] | 54 | 18 | 224 | 113 | 65
3 | C[C@H](Oc1nc(-c2onc3c2CCC[C@@]32CCCc3sc(N)c(C#N)c32)nc2c1n(C)c(=O)n2[C@@H]1CCOC1)[C@@H]1[C@H](F)CCN1C [I-4] | 107 | 33 | 2740 | 509 | 49
4 | C[C@H](Oc1nc(-c2onc3c2CCC[C@@]32CCCc3sc(N)c(C#N)c32)nc2c1CN(C1COC1)C[C@]21CCOC1)[C@@H]1CCCN1C [I-56] | 6 | 4 | 92 | 15 | <24
5 | C[C@H](Oc1nc(-c2onc3c2CCC[C@@]32CCCc3sc(N)c(C#N)c32)nc2c1n(C)c(=O)n2[C@H]1CCC[C@@H]1O)[C@@H]1CCCN1C [I-19] | 201 | 116 | 2990 | 1040 | <24

Continued by falling IC50 [1], values first:

Row | IC50 [1] [nM] | IC50 [2] [nM] | IC50 [3] [nM] | IC50 [4] [nM] | HLM QH [5] [%] | SMILES
6 | 475 | 282 | 5070 | 3400 | <24 | CCn1c(=O)n([C@@H]2CCCOC2)c2nc(-c3onc4c3CCC[C@@]43CCCc4sc(N)c(C#N)c43)nc(OCC34CCCN3CCC4)c21 [I-34]
7 | 294 | 107 | 980 | 696 | <24 | Cc1cn([C@@H]2CCOC2)c2nc(-c3onc4c3CCC[C@@]43CCCc4sc(N)c(C#N)c43)nc(O[C@@H](C)[C@@H]3CCCN3C)c12 [I-41]
8 | 93 | 35 | 2760 | 355 | <24 | C[C@H](Oc1nc(-c2onc3c2CCC[C@@]32CCCc3sc(N)c(C#N)c32)nc2c1n(C)c(=O)n2C1COC1)[C@@H]1CCCN1C [I-24]
9 | 39 | 21 | 2300 | 126 | 58 | C[C@H](Oc1nc(-c2onc3c2CCC[C@@]32CCCc3sc(N)c(C#N)c32)nc2c1n(C)c(=O)n2[C@@H]1CCOC1)[C@@H]1C[C@H](F)CN1C [I-27]
10 | 9 | 12 | 1260 | 41 | <24 | C[C@H](Oc1nc(-c2onc3c2CCC[C@@]32CCCc3sc(N)c(C#N)c32)nc2c1[nH]c(=O)n2[C@@H]1CCOC1)[C@@H]1CCCN1C [I-8]
11 | 5 | 3 | 202 | 18 | 52 | C[C@H](Oc1nc(-c2onc3c2CCC[C@@]32CCCc3sc(N)c(C#N)c32)nc2c1CN(C1COC1)C[C@]21CCOC1)[C@@H]1CC[C@H](C)N1C [I-55]
